Common to all, as to format: functional
In one assay the test system is Candida albicans. Briefly: Antifungal activity against Candida albicans MTCC 227 by two-fold serial dilution method.
The subject of a further assay is Aspergillus niger. The assay can be described thus: Antifungal activity against Aspergillus niger MTCC 282 by two-fold serial dilution method.
The test system of another assay is Aspergillus clavatus. The assay can be described thus: Antifungal activity against Aspergillus clavatus MTCC 1323 by two-fold serial dilution method.
In a further assay the test system is Pseudomonas aeruginosa. The assay can be described thus: Antibacterial activity against Pseudomonas aeruginosa MTCC 1688 by two-fold serial dilution method.
The subject of a further assay is Streptococcus pyogenes. The assay can be described thus: Antibacterial activity against Streptococcus pyogenes MTCC 442 by two-fold serial dilution method.
A further assay deals with Escherichia coli. Briefly: Antibacterial activity against Escherichia coli MTCC 443 by two-fold serial dilution method.
The next assay has as its system Staphylococcus aureus. Briefly: Antibacterial activity against Staphylococcus aureus MTCC 96 by two-fold serial dilution method.

Experimental findings from ChEMBL document CHEMBL2424643, “An efficient synthesis, characterization, and antimicrobial screening of tetrahydropyrimidine derivatives” (2013) are described below.

In brackets after ≈: the same amount, converted by molar mass.

One may read the MIC as the lowest concentration that inhibits growth of the organism. With NYSTATIN, the MIC with Candida albicans, in the assay on Aspergillus niger and against Aspergillus clavatus was 100 µM in each case.

On to `CC1=C(C(=O)Nc2ccc(C)cc2C)C(c2ccc([N+](=O)[O-])cc2)NC(=S)N1` (configuration not stated), for which the MIC in the assay with Pseudomonas aeruginosa amounted to 812 µM (≈ 322 µg/mL); against Streptococcus pyogenes, 812 µM (≈ 322 µg/mL); against Candida albicans, 1620 µM (≈ 644 µg/mL); in the assay with Aspergillus niger, 3250 µM (≈ 1290 µg/mL); in the assay with Escherichia coli, 406 µM (≈ 161 µg/mL); in the assay with Staphylococcus aureus, 812 µM (≈ 322 µg/mL). In the assay with Aspergillus clavatus, this compound returned an MIC of 3250 µM (≈ 1290 µg/mL).

On to `CC1=C(C(=O)Nc2ccc(C)cc2C)C(c2cccc([N+](=O)[O-])c2)NC(=S)N1` (configuration not stated), for which the MIC came out at 812 µM (≈ 322 µg/mL) against Pseudomonas aeruginosa; 649 µM (≈ 257 µg/mL) against Streptococcus pyogenes; 1620 µM (≈ 644 µg/mL) against Candida albicans; 3250 µM (≈ 1290 µg/mL) against Aspergillus niger; 649 µM (≈ 257 µg/mL) against Escherichia coli; 812 µM (≈ 322 µg/mL) against Staphylococcus aureus. This compound also displayed an MIC in the assay with Aspergillus clavatus of 3250 µM (≈ 1290 µg/mL).

Take `COc1ccc(C2NC(=S)NC(C)=C2C(=O)Nc2ccc(C)cc2C)cc1` (configuration not stated): the minimal inhibitory concentration (MIC) turned out to be 325 µM (≈ 124 µg/mL) against Pseudomonas aeruginosa; 406 µM (≈ 155 µg/mL) against Streptococcus pyogenes; 3250 µM (≈ 1240 µg/mL) against Candida albicans; 3250 µM (≈ 1240 µg/mL) with Aspergillus niger; 203 µM (≈ 77.4 µg/mL) in the assay with Escherichia coli; 203 µM (≈ 77.4 µg/mL) with Staphylococcus aureus. In the assay with Aspergillus clavatus, this compound gave an MIC of 3250 µM (≈ 1240 µg/mL).

As for `CC1=C(C(=O)Nc2ccc(C)cc2C)C(c2ccccc2[N+](=O)[O-])NC(=S)N1` (configuration not stated), the MIC was 649 µM (≈ 257 µg/mL) in the assay with Pseudomonas aeruginosa; 406 µM (≈ 161 µg/mL) against Streptococcus pyogenes; 3250 µM (≈ 1290 µg/mL) against Candida albicans; 3250 µM (≈ 1290 µg/mL) against Aspergillus niger; 649 µM (≈ 257 µg/mL) against Escherichia coli; 649 µM (≈ 257 µg/mL) against Staphylococcus aureus. The compound also gave an MIC in the assay with Aspergillus clavatus of 3250 µM (≈ 1290 µg/mL).

Turning to `CC1=C(C(=O)Nc2ccc(C)cc2C)C(c2ccc(Cl)cc2)NC(=S)N1` (configuration not stated), the minimum inhibitory concentration (MIC) against Pseudomonas aeruginosa was determined as 649 µM (≈ 251 µg/mL); in the assay with Streptococcus pyogenes, 649 µM (≈ 251 µg/mL); against Candida albicans, 3250 µM (≈ 1250 µg/mL); in the assay on Aspergillus niger, 3250 µM (≈ 1250 µg/mL); with Escherichia coli, 812 µM (≈ 313 µg/mL); in the assay with Staphylococcus aureus, 812 µM (≈ 313 µg/mL). The compound also displayed a minimum inhibitory concentration (MIC) against Aspergillus clavatus of 3250 µM (≈ 1250 µg/mL).

As for `CC1=C(C(=O)Nc2ccc(C)cc2C)C(c2cccc(O)c2)NC(=S)N1` (configuration not stated), the MIC against Pseudomonas aeruginosa turned out to be 649 µM (≈ 239 µg/mL); with Streptococcus pyogenes, 203 µM (≈ 74.6 µg/mL); against Candida albicans it was 1620 µM (≈ 597 µg/mL); in the assay on Aspergillus niger, 3250 µM (≈ 1190 µg/mL); in the assay on Escherichia coli, 812 µM (≈ 298 µg/mL); with Staphylococcus aureus, 649 µM (≈ 239 µg/mL). Further, in the assay on Aspergillus clavatus, the MIC came to 3250 µM (≈ 1190 µg/mL).

With `O=C(N[C@H](CO)[C@H](O)c1ccc([N+](=O)[O-])cc1)C(Cl)Cl` [CHLORAMPHENICOL], the MIC in the assay on Pseudomonas aeruginosa, against Streptococcus pyogenes, in the assay with Escherichia coli and against Staphylococcus aureus was 50 µM (≈ 16.2 µg/mL) each time.

For `CC1(C)S[C@@H]2[C@H](NC(=O)[C@H](N)c3ccccc3)C(=O)N2[C@H]1C(=O)O` [AMPICILLIN], the MIC against Pseudomonas aeruginosa came out at 100 µM (≈ 34.9 µg/mL); against Streptococcus pyogenes it was 100 µM (≈ 34.9 µg/mL); against Escherichia coli, 100 µM (≈ 34.9 µg/mL); against Staphylococcus aureus it was 250 µM (≈ 87.4 µg/mL).

With `CC1=C(C(=O)Nc2ccc(C)cc2C)C(c2cccc(Cl)c2)NC(=S)N1` (configuration not stated), the MIC was found to be 649 µM (≈ 251 µg/mL) against Pseudomonas aeruginosa; 649 µM (≈ 251 µg/mL) against Streptococcus pyogenes; 1620 µM (≈ 627 µg/mL) against Candida albicans; 3250 µM (≈ 1250 µg/mL) against Aspergillus niger; 325 µM (≈ 125 µg/mL) in the assay on Escherichia coli; 812 µM (≈ 313 µg/mL) in the assay with Staphylococcus aureus. The compound further registered an MIC against Aspergillus clavatus of 3250 µM (≈ 1250 µg/mL).

With `CC1=C(C(=O)Nc2ccc(C)cc2C)C(c2ccccc2O)NC(=S)N1` (configuration not stated), the MIC in the assay with Pseudomonas aeruginosa amounted to 406 µM (≈ 149 µg/mL); with Streptococcus pyogenes it was 325 µM (≈ 119 µg/mL); against Candida albicans it was 3250 µM (≈ 1190 µg/mL); in the assay on Aspergillus niger, 3250 µM (≈ 1190 µg/mL); against Escherichia coli it was 325 µM (≈ 119 µg/mL); in the assay on Staphylococcus aureus, 812 µM (≈ 298 µg/mL). Moreover, the lowest concentration to inhibit growth with Aspergillus clavatus (MIC) was 3250 µM (≈ 1190 µg/mL).
